Laboratory results as given in patent US8758816B2, “Compositions comprising azelastine and methods of use thereof” (priority 2004, dated 2014).
Where a name gives a salt, the structure may show the parent alone.

System: patients with seasonal allergic rhinitis (SAR)
Experiment: MP 428 two-week randomized double-blind study: Total Nasal Symptom Score (TNSS), change from baseline
Assay type: in vivo, human
Set-up: key to Change from Baseline in AM TNSS, Mean / Change from Baseline in AM TNSS, LS Mean / Change from Baseline in AM TNSS, Median: TNSS sum of 4 symptoms each 0-3 (0=none, 3=severe); change from baseline
Details: for AUC of Change from Baseline in TNSS (AM and PM Combined), Mean / AUC of Change from Baseline in TNSS (AM and PM Combined), Median / AUC of Change from Baseline in TNSS (AM and PM Combined), LS Mean: Day 1 to Day 14; for AUC of Change from Baseline in TNSS (AM and PM Combined), LS Mean: ANCOVA
Protocol: A two-week, randomized, double-blind study, which evaluated the effects of the co-administration of ASTELIN® (azelastine hydrochloride (HCl)) and FLONASE® (fluticasone propionate) compared to either product alone in patients with seasonal allergic rhinitis (SAR) was conducted during the 2006 Texas mountain cedar season. After a 5-day placebo lead-in period, 151 patients with moderate-to-severe allergic rhinitis symptoms were randomized to either: (1) (49 total patients) ASTELIN® (azelastine hydrochloride (HCl)) plus placebo saline nasal spray 2 sprays per nostril, 15 minutes apart, twice daily (AM & PM); (2) (50 total patients) FLONASE® (fluticasone propionate) plus placebo saline nasal spray, 2 sprays per nostril, 15 minutes apart, once daily (AM) and two sessions of placebo saline nasal spray, 2 sprays per nostril, 15 minutes apart (PM); or (3) (52 total patients) the co-administration of ASTELIN® (azelastine hydrochloride (HCl)) 2 sprays per nostril plus FLONASE® (fluticasone propionate) 2 sprays per nostril (AM), 15 minutes apart, and ASTELIN® (azelastine hydrochloride (HCl)) 2 sprays per nostril plus placebo saline nasal spray, 15 minutes apart, (PM) for a 2-week double-blind treatment period.
The primary efficacy variable was the change from baseline in the Total Nasal Symptom Score (TNSS), which comprised sneezing, itchy nose, runny nose, and nasal congestion (individual symptoms scores were assigned a value between 0 and 3, where 0=no symptoms and 3=severe symptoms). This study was not statistically designed to assess the differences between ASTELIN® and FLONASE®.

[1] = Day 12, Per-Protocol Population
[2] = Day 13, Intent-to-Treat Population
[3] = Day 13, Per-Protocol Population
[4] = Day 14, Intent-to-Treat Population
[5] = Day 14, Per-Protocol Population
[6] = Overall (Day 2 to Day 14), Intent-to-Treat Population
[7] = Overall (Day 2 to Day 14), Per-Protocol Population

Compound: CN1CCCC(n2nc(Cc3ccc(Cl)cc3)c3ccccc3c2=O)CC1 (racemic) [Azelastine, (±)-1-(2H)-phthalazinone, 4-[(4-chlorophenyl)methyl]-2-(hexahydro-1-methyl-1H-azepin-4-yl)-, mono-hydrochloride]
- Percent Change from Baseline in PM TNSS, Median (Day 12, Intent-to-Treat Population): −25.00%
- Change from Baseline in AM and PM Combined TNSS, LS Mean (Day 12, Intent-to-Treat Population, ANCOVA model): −5.46
- Change from Baseline in AM and PM Combined TNSS, LS Mean [1]: −5.40
- Change from Baseline in AM and PM Combined TNSS, Mean [1]: −5.54
- Change from Baseline in AM and PM Combined TNSS, Median [1]: −5.00
- Percent Change from Baseline in AM and PM Combined TNSS, LS Mean [1]: −27.82%
- Percent Change from Baseline in AM and PM Combined TNSS, Mean [1]: −28.25%
- Percent Change from Baseline in AM and PM Combined TNSS, Median [1]: −25.86%
- Change from Baseline in AM TNSS, LS Mean [2]: −2.55
- Change from Baseline in AM TNSS, Mean [2]: −2.50
- Change from Baseline in AM TNSS, Median [2]: −1.80
- Change from Baseline in AM and PM Combined TNSS, Mean [2]: −5.70
- Change from Baseline in AM and PM Combined TNSS, Median [2]: −5.30
- Change from Baseline in PM TNSS, LS Mean [2]: −3.11
- Change from Baseline in PM TNSS, Mean [2]: −3.21
- Change from Baseline in PM TNSS, Median [2]: −3.00
- Percent Change from Baseline in AM TNSS, LS Mean [2]: −26.36%
- Percent Change from Baseline in AM TNSS, Mean [2]: −26.20%
- Percent Change from Baseline in AM TNSS, Median [2]: −18.37%
- Percent Change from Baseline in AM and PM Combined TNSS, LS Mean [2]: −29.24%
- Percent Change from Baseline in AM and PM Combined TNSS, Mean [2]: −29.35%
- Percent Change from Baseline in AM and PM Combined TNSS, Median [2]: −26.15%
- Percent Change from Baseline in PM TNSS, LS Mean [2]: −32.19%
- Percent Change from Baseline in PM TNSS, Mean [2]: −32.27%
- Percent Change from Baseline in PM TNSS, Median [2]: −33.33%
- Change from Baseline in AM and PM Combined TNSS, LS Mean (Day 13, Intent-to-Treat Population, ANCOVA model): −5.65
- Change from Baseline in AM and PM Combined TNSS, LS Mean [3]: −5.59
- Change from Baseline in AM and PM Combined TNSS, Mean [3]: −5.70
- Change from Baseline in AM and PM Combined TNSS, Median [3]: −5.30
- Percent Change from Baseline in AM and PM Combined TNSS, LS Mean [3]: −29.06%
- Percent Change from Baseline in AM and PM Combined TNSS, Mean [3]: −29.35%
- Percent Change from Baseline in AM and PM Combined TNSS, Median [3]: −26.15%
- Change from Baseline in AM TNSS, LS Mean [4]: −2.56
- Change from Baseline in AM TNSS, Mean [4]: −2.52
- Change from Baseline in AM TNSS, Median [4]: −2.00
- Change from Baseline in AM and PM Combined TNSS, Mean [4]: −5.62
- Change from Baseline in AM and PM Combined TNSS, Median [4]: −5.30
- Change from Baseline in PM TNSS, LS Mean [4]: −3.00
- Change from Baseline in PM TNSS, Mean [4]: −3.10
- Change from Baseline in PM TNSS, Median [4]: −2.80
- Percent Change from Baseline in AM TNSS, LS Mean [4]: −26.51%
- Percent Change from Baseline in AM TNSS, Mean [4]: −26.44%
- Percent Change from Baseline in AM TNSS, Median [4]: −20.00%
- Percent Change from Baseline in AM and PM Combined TNSS, LS Mean [4]: −28.70%
- Percent Change from Baseline in AM and PM Combined TNSS, Mean [4]: −28.86%
- Percent Change from Baseline in AM and PM Combined TNSS, Median [4]: −25.00%
- Percent Change from Baseline in PM TNSS, LS Mean [4]: −31.07%
- Percent Change from Baseline in PM TNSS, Mean [4]: −31.14%
- Percent Change from Baseline in PM TNSS, Median [4]: −28.57%
- Change from Baseline in AM and PM Combined TNSS, LS Mean (Day 14, Intent-to-Treat Population, ANCOVA model): −5.56
- Change from Baseline in AM and PM Combined TNSS, LS Mean [5]: −5.50
- Change from Baseline in AM and PM Combined TNSS, Mean [5]: −5.62
- Change from Baseline in AM and PM Combined TNSS, Median [5]: −5.30
- Percent Change from Baseline in AM and PM Combined TNSS, LS Mean [5]: −28.52%
- Percent Change from Baseline in AM and PM Combined TNSS, Mean [5]: −28.86%
- Percent Change from Baseline in AM and PM Combined TNSS, Median [5]: −25.00%
- AUC of Change from Baseline in TNSS (AM and PM Combined), Mean (Intent-to-Treat Population): −60.38
- AUC of Change from Baseline in TNSS (AM and PM Combined), Median (Intent-to-Treat Population): −56.00
- AUC of Change from Baseline in TNSS (AM and PM Combined), LS Mean (Intent-to-Treat Population): −59.72
- Change from Baseline in AM TNSS, LS Mean [6]: −2.22
- Change from Baseline in AM TNSS, Mean [6]: −2.21
- Change from Baseline in AM TNSS, Median [6]: −1.86
- Change from Baseline in AM and PM Combined TNSS, Mean [6]: −4.73
- Change from Baseline in AM and PM Combined TNSS, Median [6]: −4.24
- Change from Baseline in PM TNSS, LS Mean [6]: −2.57
- Change from Baseline in PM TNSS, Mean [6]: −2.51
- Change from Baseline in PM TNSS, Median [6]: −2.38
- Percent Change from Baseline in AM TNSS, LS Mean [6]: −23.13%
- Percent Change from Baseline in AM TNSS, Mean [6]: −23.29%
- Percent Change from Baseline in AM TNSS, Median [6]: −19.23%
- Percent Change from Baseline in AM and PM Combined TNSS, LS Mean [6]: −24.78%
- Percent Change from Baseline in AM and PM Combined TNSS, Mean [6]: −24.47%
- Percent Change from Baseline in AM and PM Combined TNSS, Median [6]: −24.26%
- Percent Change from Baseline in PM TNSS, LS Mean [6]: −26.45%
- Percent Change from Baseline in PM TNSS, Mean [6]: −25.39%
- Percent Change from Baseline in PM TNSS, Median [6]: −21.68%
- Change from Baseline in AM and PM Combined TNSS, LS Mean (Overall (Day 2 to Day 14), Intent-to-Treat Population, ANCOVA model): −4.76
- Change from Baseline in AM and PM Combined TNSS, LS Mean [7]: −4.73
- Change from Baseline in AM and PM Combined TNSS, Mean [7]: −4.73
- Change from Baseline in AM and PM Combined TNSS, Median [7]: −4.24
- Percent Change from Baseline in AM and PM Combined TNSS, LS Mean [7]: −24.72%
- Percent Change from Baseline in AM and PM Combined TNSS, Mean [7]: −24.47%
- Percent Change from Baseline in AM and PM Combined TNSS, Median [7]: −24.26%
- AUC of Change from Baseline in TNSS (AM and PM Combined), Mean (Per-Protocol Population): −60.38
- AUC of Change from Baseline in TNSS (AM and PM Combined), Median (Per-Protocol Population): −56.00
- AUC of Change from Baseline in TNSS (AM and PM Combined), LS Mean (Per-Protocol Population): −59.23
